In article PMC5764437, “Discovery of novel, orally bioavailable, antileishmanial compounds using phenotypic screening” (PLoS Neglected Tropical Diseases, 2017):
Entries after “also recorded” stand apart in the source; their conditions may differ. Read-outs that look alike come from different tables or passages of the source.

Legend:
mouse plasma proteins = test: Mouse plasma protein binding assay (Rapid Equilibrium Dialysis); type: in vitro ADME; details: across tested concentrations
Method: (§1) A Rapid Equilibrium Dialysis (RED) Plate (Thermo Scientific, catalog #, PI-90007) was used to determine the percentage of compound binding to mouse plasma proteins (Thermo Scientific, catalog #, 50642085). The positive control for this experiment was propranolol HCl (295.807 g/mol) and the internal standard was warfarin in methanol (2 μM). 10 mM stocks of compound in DMSO were diluted with DMSO and acetonitrile to three different intermediate concentrations: high (2 mM), medium (0.4 mM) and low (0.08 mM) concentration in DMSO:acetonitrile (1:4, v:v). 10 mM stock of propranolol in DMSO were diluted to 0.4 mM concentration in DMSO:acetonitrile (1:4 v:v).
(§2) In 10 Eppendorf tubes, the control (10 μL) or each of three compound dilutions (10 μL) were each added to separate aliquots of 990 μL mouse plasma. Potassium phosphate buffer (500 μL, 0.1 M, pH 7.4, 37 °C) was placed in every white well of the RED plate and each plasma/compound mixture was added to each of 3 RED wells (300 μL). The RED plate holds triplicate samples of one control (final concentration […]) and one compound (final concentrations: 20 μM, 4 μM, […]). The RED Plate was sealed and incubated at 37 °C shaking at 250 rpm for 4 hours. After incubation, aliquots (50 μL) from each well in the RED plate were transferred to an assay plate (pION Inc., MA, #110323). In order to create a uniform matrix in every well of the assay plate, plasma (50 μL) was added to each of the wells that already contained buffer and potassium phosphate buffer (50 μL) was added to each of the wells that already contained plasma/compound. Pre-cooled internal standard (300 μL) was added to the assay plate to quench the reaction. The quenched plate was then centrifuged (5810R, Eppendorf, Westbury, NY) at 3000 rpm for 20 minutes.
(§3) The percentage of free compound [1] and bound compound [2] was calculated usng the AUC ratio of compound to warfarin from the SIR spectra. For reporting data, % Free = Concentration buffer/Concentration plasma *100 %, and % Bound = 100% - % Free.

[1] = as above; type: in vitro ADME; details: mouse, mouse plasma, pH 7.4; for fraction unbound at 4 h, 0.8 μM: Conc. 0.8 μM; for fraction unbound at 4 h, 4 μM: Conc. 4 μM; for fraction unbound at 4 h, 20 μM: Conc. 20 μM
Method: as §1, §2, §3

L. mexicana = test: Efficacy in murine model of cutaneous leishmaniasis (footpad lesion size); type: in vivo; details: BALB/c mice infected with L. mexicana, measured weeks 4–12
Method: Female BALB/c mice (~20 g) were injected in one hind footpad with 1 x 10^6 stationary phase promastigotes suspended in 25 μl of phosphate buffered saline (PBS). Four weeks after infection, when a small cutaneous lesion was visible in the injected footpad, cohorts of five mice were treated with either compound or vehicle alone (90 μl), delivered daily for 10 consecutive days by oral gavage using a 20-gauge x 30 mm disposable plastic feeding needle. Vehicle consisted of 10/10/40/39 mixture of ethanol/(PG)/PEG400/PBS plus 1% (weight/volume) 2HβCD (PG is propylene glycol, PEG is polyethylene glycol, 2HβCD is 2-hydroxy-β-cyclodextran). The daily dose for each compound was: compound 4, 25 mg/kg; compound 5, 30 mg/kg; miltefosine, 20 mg/kg. The width of the footpad (top to bottom) was measured with calipers before injection of parasites (day 0) and weekly from weeks 4–12. The width of the uninfected contralateral footpad was also measured each week, and its width was subtracted from that of the infected footpad to determine lesion size.

[2] = Single oral dose pharmacokinetic study in mice; type: in vivo, mouse; details: single oral gavage; for half-life: read-out: t½ (converted)
Method: Female BALB/c mice of 17-21 grams were purchased from Charles River Laboratories (Wilmington, MA). Food and water were provided ad libitum. […] All animal received 100 ± 20 µL of compound solution in formulation (10/10/40/40: […] Animals were euthanized via cardiac puncture at 48 h post injection. Blood samples were treated with 10 µL of EDTA sodium solution to prevent coagulation. […] The supernatant (40 µL) was collected and mixed with 2 parts of Milli-Q water and centrifuged again at 4000 rpm for 20 min at 4 °C. Plasma concentration was determined with a partially validated LC/MS-MS assay with multiple reaction monitoring detection (AB Sciex, Framingham, MA). The summary of the LC/MS/MS method is provided below. The assay lower limit of quantification (LLOQ) was 4.57 nM in plasma. […] The Area Under the Concentration-Time Curve (AUC) was calculated with the linear trapezoidal, linear interpolation rule using mean concentrations and nominal times. The standard error of the AUC to the last time point (AUClast) was generated using the sparse sampling option. The terminal elimination rate (Lambda_z) and half-life (HL_Lambda_z) was determined using the default “Best Fit” method. The predicted AUC from the last time point to infinity (AUCINF_pred) was calculated as AUClast plus Clast(pred)/Lambda_z. Clearance (CL or CL/F) was calculated as Dose/AUCINF_pred. If ≥2/3rds of the observed concentrations were below LLOQ, the mean concentration was treated missing. The calibration curve was obtained as follows. The calibration was done using the same biological matrices to ensure similar recovery. […] All concentrations in the calibration range must be no more than 20% deviation. If there were any points with more than 20% deviation on the high or low end, the calibration range would be truncated. If an outlier occurred in the middle of the curve, the whole curve would be re-done. The signal: noise of the compound peak at the H/LLOQ must be greater than 5. […] The samples were tested on the same or the second day.

J774A.1 macrophages = test: Cytotoxicity to J774A.1 macrophages (dose-response); type: cell-based; details: for EC50: Mus musculus, J774.A1, host macrophage, tested up to 10 μM, mean ± standard deviation, n = 2, read-out: J774A.1 EC50
Method: Cytotoxicity of compounds to J774.A1 macrophages was determined by dose-response curves as described previously. In the absence of growth inhibitors or DMSO, the macrophages increased in number ~6-fold over 96 h in Minimum Essential Medium, employed for both macrophage infections and the toxicity assays.

[3] = female, BALB/c, mouse, plasma, po, 25 mg/kg
[4] = female, BALB/c, mouse, plasma, po, 50 mg/kg

With `COc1ccc(-c2c(C(F)(F)F)oc3c(CN4CCN(C)CC4)c(O)ccc3c2=O)cc1OC` [Compound 4] the “Binding to mouse plasma proteins” value (mouse plasma proteins) was under 50%, the fraction unbound at 4 h, 0.8 μM [1] was 0.54 and the fraction unbound at 4 h, 4 μM [1] was 0.599. For the same molecule, the fraction unbound at 4 h, 20 μM [1] was 0.534, the “Cutaneous lesion size (footpad width)” value (L. mexicana; 25 mg/kg daily oral gavage for 10 days from week 4) was “controlled lesion size at dimensions similar to that at the time of compound dosing (4 weeks) until week 9” and the Cmax [2, 3] was 3.2 µM. It also gave a Tmax [2, 3] of at most 1 h, a half-life ([2]; female, BALB/c, mouse, plasma, po, 25 mg/kg, 25 mg/kg, plasma) of 3 h and an AUC ([2]; female, BALB/c, mouse, 25 mg/kg, plasma) of 16.7 µM·h. The CL ([2]; 25 mg/kg) was 52.2 mL/min/kg, the Vd ([2]; 25 mg/kg) was 14.2 L/kg and the t½ ([2]; 25 mg/kg, plasma) was 3.2 h. For the same molecule, the EC50 (J774A.1 macrophages) was over 10000 nM and the “Reduction in viability / inhibition of host macrophage J774A.1 in dose-response studies” value (J774A.1 macrophages; up to 10 μM) was “no reduction in viability; also recorded: no inhibition of J774A.1 macrophages up to 10 μM concentration”.
In the case of `Cc1ccc(-c2nc3ccccc3s2)cc1NC(=O)c1cc([N+](=O)[O-])c(N2CCN(C)CC2)cc1Cl` [Compound 5], the “Binding to mouse plasma proteins” value (mouse plasma proteins) is reported as under 50%, the fraction unbound at 4 h, 0.8 μM [1] is reported as 0.65 and the fraction unbound at 4 h, 4 μM [1] is reported as 0.591. For the same molecule, the fraction unbound at 4 h, 20 μM [1] was 0.586, the “Cutaneous lesion size (footpad width)” value (L. mexicana; 30 mg/kg daily oral gavage for 10 days from week 4) was “controlled lesion size at dimensions similar to that at the time of compound dosing (4 weeks) until week 9” and the Cmax [2, 4] was 6.49 µM. For the same molecule, the Tmax [2, 4] was 4 h, the half-life ([2]; female, BALB/c, mouse, plasma, po, 50 mg/kg, 50 mg/kg, plasma) was 7.1 h and the AUC ([2]; female, BALB/c, mouse, 50 mg/kg, plasma) was 83.2 µM·h. For the same molecule, the CL ([2]; 50 mg/kg) was 19.2 mL/min/kg, the Vd ([2]; 50 mg/kg) was 11.8 L/kg and the Cmax ([2]; 50 mg/kg, plasma) was 6.5 µM. The EC50 (J774A.1 macrophages) was 1100 ± 800 nM.
